Experimental data from ChEMBL document CHEMBL1201862, “PubChem BioAssay data set” (2004).
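Values below derive from 48-hour exposures of cells grown in 96-well plates, with endpoints linearly interpolated between the two concentrations bracketing the appropriate inhibition level. The concentration for 50% growth inhibition is given as GI50.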 Activity calls are given as the source filed them. Rule as the data show it: active = GI50 up to about 1.1 µM and inactive = higher.

Columns and labels:
Assay in all cases: NCI-60 cell line screen, 48 h
[1] = test system: SK-MEL-2
[2] = test system: HCT-15
[3] = test system: SK-MEL-5
[4] = test system: HL-60
[5] = test system: SK-MEL-28
[6] = test system: RPMI-8226
[7] = test system: NCI-H460
[8] = test system: NCI-H23
[9] = test system: K562
[10] = test system: MCF7
[11] = test system: T47D
[12] = test system: OVCAR-4
[13] = test system: SK-OV-3
[14] = test system: OVCAR-8
[15] = test system: DU-145
[16] = test system: HT-29
[17] = test system: COLO 205
[18] = test system: RXF 393
[19] = test system: KM12
[20] = test system: EKVX
[21] = test system: Malme-3M
[22] = test system: OVCAR-5
[23] = test system: M14
[24] = test system: SN12C
[25] = test system: SNB-19
[26] = test system: NCI-H226
[27] = test system: SF-539
[28] = test system: LOX IMVI
[29] = test system: IGROV-1
[30] = test system: SF-268
[31] = test system: UO-31
[32] = test system: HOP-62
[33] = test system: HOP-92
[34] = test system: BT-549
[35] = test system: 786-0
[36] = test system: HCC 2998
[37] = test system: Hs-578T
[38] = test system: UACC-62
[39] = test system: MDA-MB-435
[40] = test system: MOLT-4
[41] = test system: PC-3
[42] = test system: SR
[43] = test system: ACHN
[44] = test system: SF-295
[45] = test system: HCT-116
[46] = test system: NCI-H522
[47] = test system: UACC-257
[48] = test system: NCI/ADR-RES
[49] = test system: MDA-MB-231
[50] = test system: SNB-75
[51] = test system: U-251
[52] = test system: MDA-N
[53] = test system: OVCAR-3
[54] = test system: A549
[55] = test system: TK-10
[56] = test system: CAKI-1
[57] = test system: SW-620
[58] = test system: CCRF-CEM

## O=C(Nc1ccccc1)c1cc(S(=O)(=O)NC2=Nc3ccc(Cl)cc3C(c3ccccc3)N2)c(SSc2cc(Cl)c(C(=O)Nc3ccccc3)cc2S(=O)(=O)NC2=Nc3ccc(Cl)cc3C(c3ccccc3)N2)cc1Cl (stereo not given)
[1]
  GI50: > 100 µM (inactive)
[2]
  GI50: > 100 µM
[3]
  GI50: > 100 µM (inactive)
[4]
  GI50: > 36.1 µM (inactive)
[5]
  GI50: > 100 µM (inactive)
[6]
  GI50: 55.3 µM (inactive)
[7]
  GI50: > 100 µM (inactive)
[8]
  GI50: > 100 µM (inactive)
[9]
  GI50: 38 µM (inactive)
[10]
  GI50: > 100 µM (inactive)
[11]
  GI50: > 100 µM (inactive)
[12]
  GI50: > 100 µM (inactive)
[13]
  GI50: > 100 µM (inactive)
[14]
  GI50: > 100 µM (inactive)
[15]
  GI50: > 100 µM (inactive)
[16]
  GI50: > 100 µM (inactive)
[17]
  GI50: > 100 µM (inactive)
[18]
  GI50: > 100 µM (inactive)
[19]
  GI50: > 100 µM (inactive)
[20]
  GI50: > 100 µM (inactive)
[21]
  GI50: > 100 µM (inactive)
[22]
  GI50: > 61.5 µM (inactive)
[23]
  GI50: > 57.4 µM (inactive)
[24]
  GI50: > 100 µM (inactive)
[25]
  GI50: > 100 µM (inactive)
[26]
  GI50: > 100 µM (inactive)
[27]
  GI50: > 100 µM (inactive)
[28]
  GI50: > 100 µM (inactive)
[29]
  GI50: > 100 µM (inactive)
[30]
  GI50: > 100 µM (inactive)
[31]
  GI50: > 100 µM (inactive)
[32]
  GI50: > 80.5 µM (inactive)
[33]
  GI50: > 100 µM (inactive)
[34]
  GI50: > 100 µM (inactive)
[35]
  GI50: > 100 µM (inactive)
[36]
  GI50: > 100 µM (inactive)
[37]
  GI50: > 100 µM (inactive)
[38]
  GI50: > 89.9 µM (inactive)
[39]
  GI50: > 100 µM (inactive)
[40]
  GI50: 28.4 µM (inactive)
[41]
  GI50: > 100 µM (inactive)
[42]
  GI50: 13.6 µM (inactive)
[43]
  GI50: > 100 µM (inactive)
[44]
  GI50: > 100 µM (inactive)
[45]
  GI50: > 100 µM (inactive)
[46]
  GI50: > 100 µM (inactive)
[47]
  GI50: > 100 µM (inactive)
[48]
  GI50: > 100 µM (inactive)
[49]
  GI50: > 45.3 µM (inactive)
[50]
  GI50: > 100 µM (inactive)
[51]
  GI50: > 100 µM (inactive)
[52]
  GI50: > 100 µM (inactive)
[53]
  GI50: > 100 µM (inactive)
[54]
  GI50: > 100 µM (inactive)
[55]
  GI50: > 100 µM (inactive)
[56]
  GI50: > 100 µM (inactive)
[57]
  GI50: > 100 µM (inactive)

## COc1ccc(C)cc1N1C(=O)C2ON(Cc3ccc(CC(N)=O)cc3)C(c3c4ccccc4c(Cl)c4ccccc34)C2C1=O (stereo not given)
[1]
  GI50: 21.1 µM (inactive)
[2]
  GI50: 22.4 µM
[4]
  GI50: 27.6 µM (inactive)
[5]
  GI50: 44.1 µM (inactive)
[7]
  GI50: 18.4 µM (inactive)
[8]
  GI50: 29.3 µM (inactive)
[9]
  GI50: 28.8 µM (inactive)
[10]
  GI50: 26.4 µM (inactive)
[58]
  GI50: 21.5 µM (inactive)
[11]
  GI50: 27.4 µM (inactive)
[12]
  GI50: 24.3 µM (inactive)
[13]
  GI50: 31.8 µM (inactive)
[14]
  GI50: 27.6 µM (inactive)
[15]
  GI50: 22.6 µM (inactive)
[16]
  GI50: 20.3 µM (inactive)
[18]
  GI50: 13.3 µM (inactive)
[19]
  GI50: 14 µM (inactive)
[20]
  GI50: 28.2 µM (inactive)
[21]
  GI50: 31.1 µM (inactive)
[22]
  GI50: 23.6 µM (inactive)
[23]
  GI50: 19.3 µM (inactive)
[24]
  GI50: 20.2 µM (inactive)
[25]
  GI50: 32.1 µM (inactive)
[28]
  GI50: 22.8 µM (inactive)
[29]
  GI50: 33.2 µM (inactive)
[30]
  GI50: 26.5 µM (inactive)
[31]
  GI50: 25.7 µM (inactive)
[32]
  GI50: 27.7 µM (inactive)
[33]
  GI50: 32.6 µM (inactive)
[34]
  GI50: 24.1 µM (inactive)
[35]
  GI50: 21.4 µM (inactive)
[37]
  GI50: 41.9 µM (inactive)
[38]
  GI50: 19.7 µM (inactive)
[39]
  GI50: 21.9 µM (inactive)
[40]
  GI50: 24.9 µM (inactive)
[41]
  GI50: 28.1 µM (inactive)
[42]
  GI50: 12.8 µM (inactive)
[43]
  GI50: 25.4 µM (inactive)
[44]
  GI50: 22.9 µM (inactive)
[45]
  GI50: 15.1 µM (inactive)
[46]
  GI50: 32.1 µM (inactive)
[47]
  GI50: 15 µM (inactive)
[48]
  GI50: 26.1 µM (inactive)
[49]
  GI50: 19.9 µM (inactive)
[50]
  GI50: 12.4 µM (inactive)
[51]
  GI50: 24.3 µM (inactive)
[52]
  GI50: 14.6 µM (inactive)
[53]
  GI50: 28.4 µM (inactive)
[54]
  GI50: 55.2 µM (inactive)
[55]
  GI50: 23.1 µM (inactive)
[56]
  GI50: 25.8 µM (inactive)
[57]
  GI50: 28.4 µM (inactive)

## C/C(=N/O)c1cccc(Nc2nc3ccccc3c3[nH]c4ccccc4c23)c1
[1]
  GI50: 2.25 µM (inactive)
[2]
  GI50: 2.36 µM
[3]
  GI50: 1.63 µM (inactive)
[4]
  GI50: 3.08 µM (inactive)
[5]
  GI50: 3.6 µM (inactive)
[6]
  GI50: 2.26 µM (inactive)
[7]
  GI50: 1.64 µM (inactive)
[8]
  GI50: 3.08 µM (inactive)
[9]
  GI50: 3.44 µM (inactive)
[10]
  GI50: 1.48 µM (inactive)
[58]
  GI50: 2.39 µM (inactive)
[11]
  GI50: 1.52 µM (inactive)
[12]
  GI50: 2.33 µM (inactive)
[13]
  GI50: 5.98 µM (inactive)
[14]
  GI50: 2.65 µM (inactive)
[15]
  GI50: 1.74 µM (inactive)
[16]
  GI50: 1.57 µM (inactive)
[17]
  GI50: 2.24 µM (inactive)
[18]
  GI50: 1.89 µM (inactive)
[19]
  GI50: 2.58 µM (inactive)
[20]
  GI50: 2.29 µM (inactive)
[21]
  GI50: 3.92 µM (inactive)
[22]
  GI50: 2.65 µM (inactive)
[23]
  GI50: 2.6 µM (inactive)
[24]
  GI50: 3.4 µM (inactive)
[25]
  GI50: 4.08 µM (inactive)
[26]
  GI50: 4.8 µM (inactive)
[27]
  GI50: 5.74 µM (inactive)
[28]
  GI50: 2.22 µM (inactive)
[29]
  GI50: 3.19 µM (inactive)
[30]
  GI50: 1.87 µM (inactive)
[31]
  GI50: 2.88 µM (inactive)
[32]
  GI50: 2.29 µM (inactive)
[33]
  GI50: 2.51 µM (inactive)
[34]
  GI50: 12.8 µM (inactive)
[35]
  GI50: 2.3 µM (inactive)
[37]
  GI50: 3.24 µM (inactive)
[38]
  GI50: 2.28 µM (inactive)
[39]
  GI50: 2.5 µM (inactive)
[40]
  GI50: 0.879 µM (active)
[41]
  GI50: 2.93 µM (inactive)
[42]
  GI50: 1.15 µM (inactive)
[43]
  GI50: 1.59 µM (inactive)
[44]
  GI50: 1.98 µM (inactive)
[45]
  GI50: 1.16 µM (inactive)
[46]
  GI50: 1.5 µM (inactive)
[47]
  GI50: 6.08 µM (inactive)
[48]
  GI50: 2.99 µM (inactive)
[49]
  GI50: 2.95 µM (inactive)
[51]
  GI50: 3.16 µM (inactive)
[52]
  GI50: 1.82 µM (inactive)
[53]
  GI50: 2.22 µM (inactive)
[54]
  GI50: 2.22 µM (inactive)
[55]
  GI50: 4.6 µM (inactive)
[56]
  GI50: 2.75 µM (inactive)
[57]
  GI50: 1.63 µM (inactive)
